From US11339130B1 (Blade Therapeutics, Inc., priority 2016, dated 2022)
Read-outs that look alike come from different tables or passages of the source.

Legend:
[1] = tested on: Calpain activity in SH-SY5Y cells; test: SH-SY5Y + AMC fluorescence assay (Suc-LLVY-AMC substrate); type: cell-based; conditions: read-out: SH-SY5Y + AMC IC50
[2] = tested on: Calpain activity in SH-SY5Y cells (SBDP-150); test: SH-SY5Y Spectrin western blot assay (SBDP-150 breakdown product, A23187-induced); type: cell-based; conditions: Homo sapiens, SH-SY5Y cells, read-out: SH-SY5Y Spectrin IC50
Human Calpain 2/NS1 = target: T1, Human Calpain 2/NS1 (Homo sapiens, UniProt P17655); test: Calpain inhibition continuous fluorescence (FRET) assay, Human Calpain 2/NS1; type: biochemical; conditions: read-out: Human Calpain 2/NS1 IC50
T1 sequence (P17655 1-700): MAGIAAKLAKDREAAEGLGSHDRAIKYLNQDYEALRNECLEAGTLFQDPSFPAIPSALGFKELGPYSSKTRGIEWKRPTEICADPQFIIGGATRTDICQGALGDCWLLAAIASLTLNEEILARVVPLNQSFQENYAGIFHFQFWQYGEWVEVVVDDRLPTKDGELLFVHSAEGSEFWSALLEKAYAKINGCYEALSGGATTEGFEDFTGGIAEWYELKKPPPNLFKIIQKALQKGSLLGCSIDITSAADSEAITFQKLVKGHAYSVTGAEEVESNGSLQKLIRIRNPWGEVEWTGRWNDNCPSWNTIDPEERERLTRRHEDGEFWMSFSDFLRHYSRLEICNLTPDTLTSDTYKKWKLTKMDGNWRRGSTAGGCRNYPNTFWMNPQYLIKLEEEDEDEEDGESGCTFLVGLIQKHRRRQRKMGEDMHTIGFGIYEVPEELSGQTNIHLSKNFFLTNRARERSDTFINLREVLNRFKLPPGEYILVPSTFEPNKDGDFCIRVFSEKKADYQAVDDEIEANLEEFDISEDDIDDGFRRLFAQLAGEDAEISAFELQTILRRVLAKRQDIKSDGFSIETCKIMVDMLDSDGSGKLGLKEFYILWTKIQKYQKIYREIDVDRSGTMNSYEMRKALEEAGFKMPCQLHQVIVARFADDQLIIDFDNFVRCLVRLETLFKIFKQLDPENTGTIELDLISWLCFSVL
T1 sequence (P04632 1-268 partner): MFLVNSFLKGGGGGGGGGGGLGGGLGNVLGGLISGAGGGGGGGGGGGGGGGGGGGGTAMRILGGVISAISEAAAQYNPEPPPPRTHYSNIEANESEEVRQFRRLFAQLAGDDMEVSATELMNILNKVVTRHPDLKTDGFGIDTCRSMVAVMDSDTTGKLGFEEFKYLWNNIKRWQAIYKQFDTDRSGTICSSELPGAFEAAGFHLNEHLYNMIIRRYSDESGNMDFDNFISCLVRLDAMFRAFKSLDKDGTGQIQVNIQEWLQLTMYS
Summary of the method: (§1)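 Buffer 50 mM Tris pH 7.5/100 mM NaCl/1 mM DTT; enzyme + cpd preinc 25C; start w/ FRET substrate + CaCl2; kinetic 490/520 nm, 10 min; slopes 1-5 min; 4-PL IC50.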

Human Calpain 1/NS1 = target: T2, Human Calpain 1/NS1 (Homo sapiens, UniProt P07384); test: Calpain inhibition continuous fluorescence (FRET) assay, Human Calpain 1/NS1; type: biochemical; conditions: read-out: Human Calpain 1/NS1 IC50
T2 sequence (P07384 1-714): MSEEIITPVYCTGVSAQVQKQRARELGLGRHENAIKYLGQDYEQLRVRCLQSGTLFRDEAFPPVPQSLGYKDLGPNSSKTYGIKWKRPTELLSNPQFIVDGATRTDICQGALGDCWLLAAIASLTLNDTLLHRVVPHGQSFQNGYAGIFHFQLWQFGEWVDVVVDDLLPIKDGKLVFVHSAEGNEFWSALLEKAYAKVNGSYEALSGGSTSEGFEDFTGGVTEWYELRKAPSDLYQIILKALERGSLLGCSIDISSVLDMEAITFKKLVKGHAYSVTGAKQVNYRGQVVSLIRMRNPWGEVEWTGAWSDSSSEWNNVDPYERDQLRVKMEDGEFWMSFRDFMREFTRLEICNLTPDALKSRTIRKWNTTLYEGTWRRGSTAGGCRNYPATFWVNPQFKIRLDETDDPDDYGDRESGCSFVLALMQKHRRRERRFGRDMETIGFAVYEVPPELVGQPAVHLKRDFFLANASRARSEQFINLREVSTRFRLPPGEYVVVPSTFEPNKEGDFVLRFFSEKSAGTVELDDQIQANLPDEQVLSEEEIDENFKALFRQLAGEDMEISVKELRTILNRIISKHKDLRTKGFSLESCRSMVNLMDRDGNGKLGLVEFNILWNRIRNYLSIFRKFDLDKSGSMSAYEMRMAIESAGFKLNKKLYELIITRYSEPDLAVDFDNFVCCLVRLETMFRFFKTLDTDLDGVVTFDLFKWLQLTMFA
T2 sequence (P04632 1-268 partner): T1 sequence (P04632 1-268 partner)
Summary of the method: as §1

Human Calpain 9/NS1 = target: T3, Human Calpain 9/NS1 (Homo sapiens, UniProt O14815); test: Calpain inhibition continuous fluorescence (FRET) assay, Human Calpain 9/NS1; type: biochemical; conditions: read-out: Human Calpain 9/NS1 IC50
T3 sequence (O14815 1-690): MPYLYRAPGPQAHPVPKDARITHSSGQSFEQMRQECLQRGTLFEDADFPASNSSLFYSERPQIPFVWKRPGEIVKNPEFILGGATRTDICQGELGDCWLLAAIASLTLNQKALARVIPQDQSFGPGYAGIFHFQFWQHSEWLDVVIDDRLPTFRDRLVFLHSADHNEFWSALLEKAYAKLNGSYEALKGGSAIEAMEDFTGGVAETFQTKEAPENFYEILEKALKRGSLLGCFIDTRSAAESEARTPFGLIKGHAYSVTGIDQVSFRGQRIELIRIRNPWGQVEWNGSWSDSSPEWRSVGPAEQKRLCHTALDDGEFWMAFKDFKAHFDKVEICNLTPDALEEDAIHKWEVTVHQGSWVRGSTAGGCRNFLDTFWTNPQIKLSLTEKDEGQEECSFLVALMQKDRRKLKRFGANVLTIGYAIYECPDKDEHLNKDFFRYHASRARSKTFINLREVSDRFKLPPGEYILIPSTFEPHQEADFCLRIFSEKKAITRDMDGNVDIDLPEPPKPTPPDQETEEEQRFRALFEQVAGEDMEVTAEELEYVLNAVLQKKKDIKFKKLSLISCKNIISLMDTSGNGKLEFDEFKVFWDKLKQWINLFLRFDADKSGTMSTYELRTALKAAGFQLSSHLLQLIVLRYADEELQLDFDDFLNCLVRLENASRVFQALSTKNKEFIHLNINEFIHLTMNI
T3 sequence (P04632 1-268 partner): T1 sequence (P04632 1-268 partner)
Summary of the method: as §1

[3] = A23187-induced SBDP-150, western blot
[4] = Column D, A23187-induced SBDP-150

SMILES	IC50 [1] [µM]	IC50 [2, 3] [µM]	IC50 (Human Calpain 2/NS1) [µM]	IC50 (Human Calpain 1/NS1) [µM]	IC50 (Human Calpain 9/NS1) [µM]	IC50 ([1]; Column E) [µM]	IC50 [2, 4] [µM]	IC50 (Human Calpain 2/NS1; Column B) [µM]	IC50 (Human Calpain 1/NS1; Column A) [µM]	IC50 (Human Calpain 9/NS1; Column C) [µM]
Cc1cccc(-c2nn(C)cc2C(=O)NC(Cc2ccccc2)C(=O)C(N)=O)c1F (stereo not shown) [Compound 517, N-(4-amino-3,4-dioxo-1-phenylbutan-2-yl)-3-(2-fluoro-3-methylphenyl)-1-methyl-1H-pyrazole-4-carboxamide]	10 to 25	10 to 25	< 3	< 3	< 3	–	–	–	–	–
Cn1cc(C(=O)NC(C(=O)C(N)=O)c2ccc3ccccc3c2)c(-c2ccccc2F)n1 (stereo not shown) [Compound 579, N-(3-amino-1-(naphthalen-2-yl)-2,3-dioxopropyl)-3-(2-fluorophenyl)-1-methyl-1H-pyrazole-4-carboxamide]	< 10	> 25	< 3	< 3	< 3	–	–	–	–	–
NC(=O)C(=O)C(Cc1ccccc1)NC(=O)c1cn(C(F)F)nc1-c1cccc(F)c1 (stereo not shown) [Compound 381, N-(4-amino-3,4-dioxo-1-phenylbutan-2-yl)-1-(difluoromethyl)-3-(3-fluorophenyl)-1H-pyrazole-4-carboxamide]	< 10	< 10	< 3	< 3	< 3	–	–	–	–	–
Cc1cccc(-n2nc(C)cc2C(=O)N[C@@H](Cc2ccccc2)C(=O)C(N)=O)n1 [Compound 84, (S)—N-(4-amino-3,4-dioxo-1-phenylbutan-2-yl)-3-methyl-1-(6-methylpyridin-2-yl)-1H-pyrazole-5-carboxamide]	–	–	–	–	–	< 10	< 10	< 3	< 3	< 3
NC(=O)C(=O)C(Cc1ccccc1)NC(=O)c1cn(C(F)F)nc1-c1cccc2cnccc12 (stereo not shown) [Compound 598, N-(4-amino-3,4-dioxo-1-phenylbutan-2-yl)-1-(difluoromethyl)-3-(isoquinolin-5-yl)-1H-pyrazole-4-carboxamide]	< 10	< 10	< 3	< 3	< 3	–	–	–	–	–
Cn1cc(C(=O)N[C@@H](Cc2ccccc2)C(=O)C(N)=O)c(-c2ccncc2)n1 [Compound 170, (S)—N-(4-amino-3,4-dioxo-1-phenylbutan-2-yl)-1-methyl-3-(pyridin-4-yl)-1H-pyrazole-4-carboxamide]	–	–	–	–	–	> 25	> 25	< 3	< 3	< 3
NC(=O)C(=O)[C@@H](Cc1ccccc1)NC(=O)c1cn(C(F)F)nc1-c1ccccc1 [Compound 380, (R)—N-(4-amino-3,4-dioxo-1-phenylbutan-2-yl)-1-(difluoromethyl)-3-phenyl-1H-pyrazole-4-carboxamide]	< 10	< 10	< 3	< 3	< 3	–	–	–	–	–
Cn1cc(C(=O)NC(Cc2ccccc2)C(=O)C(N)=O)c(-c2cc(F)ccc2F)n1 (stereo not shown) [Compound 518, N-(4-amino-3,4-dioxo-1-phenylbutan-2-yl)-3-(2,5-difluorophenyl)-1-methyl-1H-pyrazole-4-carboxamide]	< 10	10 to 25	< 3	< 3	< 3	–	–	–	–	–
